Columns and labels:
PANC-1 tumor model = assay: Tissue distribution in nude mice (PANC-1 tumor model); type: in vivo, BALB/c nu/nu mice; conditions: nude mice (PANC-1 tumor model)
Outline: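 Male 5-week-old BALB/c nu/nu mice bearing subcutaneous PANC-1 xenografts (1 × 10^7 cells/mouse with Matrigel), used once tumors exceeded 50 mm^3. Single doses of ^211At-labelled AAMT derivatives ranged from 135.08 ± 2.35 kBq to 0.927 ± 0.020 MBq per mouse, n = 3–6.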

[1] = Tissue distribution in ICR mice (normal animals); type: in vivo
Text: ICR mice (male, 5 weeks old) were purchased from Japan SLC (Shizuoka, Japan) and acclimated for one week prior to use. The doses in the distribution experiments were as follows: ^211At-AAMT-O-Me-L (0.407 ± 0.005 MBq/mouse, 31.64 ± 0.76 g, n = 6), ^211At-AAMT-O-Me-D (0.351 ± 0.004 MBq/mouse, 31.44 ± 0.94 g, n = 6), ^211At-AAMT-O-Et-L (0.685 ± 0.010 MBq/mouse, 24.14 ± 3.31 g, n = 6), ^211At-AAMT-O-Pr-L (1.09 ± 0.06 MBq/mouse, 26.33 ± 0.39 g, n = 6)

COc1ccc(C[C@@](C)(N)C(=O)O)cc1[211At] [^211At-AAMT-O-Me-D]
Tissue distribution, Bladder (PANC-1 tumor model; 1 h after injection): 1.76 ± 1.64 %ID/g
Tissue distribution, Blood (PANC-1 tumor model; 1 h after injection): 3.52 ± 1.89 %ID/g
Tissue distribution, Bone (PANC-1 tumor model; 1 h after injection): 0.30 ± 0.12 %ID/g
Tissue distribution, Brain (PANC-1 tumor model; 1 h after injection): 0.15 ± 0.01 %ID/g
Tissue distribution, Cecum (PANC-1 tumor model; 1 h after injection): 2.35 ± 1.73 %ID/g
Tissue distribution, Colon (PANC-1 tumor model; 1 h after injection): 0.85 ± 0.49 %ID/g
Tissue distribution, Heart (PANC-1 tumor model; 1 h after injection): 0.53 ± 0.08 %ID/g
Tissue distribution, Kidney (PANC-1 tumor model; 1 h after injection): 1.40 ± 0.56 %ID/g
Tissue distribution, Liver (PANC-1 tumor model; 1 h after injection): 3.09 ± 0.39 %ID/g
Tissue distribution, Lung (PANC-1 tumor model; 1 h after injection): 2.24 ± 0.89 %ID/g
Tissue distribution, Pancreas (PANC-1 tumor model; 1 h after injection): 0.61 ± 0.44 %ID/g
Tissue distribution, Salivary glands (PANC-1 tumor model; 1 h after injection): 0.30 ± 0.10 %ID/g
Tissue distribution, Small intestine (PANC-1 tumor model; 1 h after injection): 2.05 ± 0.81 %ID/g
Tissue distribution, Spleen (PANC-1 tumor model; 1 h after injection): 1.70 ± 0.74 %ID/g
Tissue distribution, Stomach (PANC-1 tumor model; 1 h after injection): 1.43 ± 0.94 %ID/g
Tissue distribution, Testis (PANC-1 tumor model; 1 h after injection): 1.05 ± 0.77 %ID/g
Tissue distribution, Thyroid (PANC-1 tumor model; 1 h after injection): 0.14 ± 0.04 %ID/g
Tissue distribution, Tumor (PANC-1 tumor model; 1 h after injection): 3.25 ± 1.39 %ID/g
Tissue distribution, Bladder (PANC-1 tumor model; 3 h after injection): 1.04 ± 0.97 %ID/g
Tissue distribution, Blood (PANC-1 tumor model; 3 h after injection): 1.92 ± 1.16 %ID/g
Tissue distribution, Bone (PANC-1 tumor model; 3 h after injection): 0.26 ± 0.12 %ID/g
Tissue distribution, Brain (PANC-1 tumor model; 3 h after injection): 0.10 ± 0.03 %ID/g
Tissue distribution, Cecum (PANC-1 tumor model; 3 h after injection): 1.32 ± 0.96 %ID/g
Tissue distribution, Colon (PANC-1 tumor model; 3 h after injection): 0.40 ± 0.25 %ID/g
Tissue distribution, Heart (PANC-1 tumor model; 3 h after injection): 0.37 ± 0.03 %ID/g
Tissue distribution, Kidney (PANC-1 tumor model; 3 h after injection): 1.54 ± 0.86 %ID/g
Tissue distribution, Liver (PANC-1 tumor model; 3 h after injection): 2.60 ± 0.07 %ID/g
Tissue distribution, Lung (PANC-1 tumor model; 3 h after injection): 1.27 ± 0.40 %ID/g
Tissue distribution, Pancreas (PANC-1 tumor model; 3 h after injection): 0.48 ± 0.35 %ID/g
Tissue distribution, Salivary glands (PANC-1 tumor model; 3 h after injection): 0.33 ± 0.13 %ID/g
Tissue distribution, Small intestine (PANC-1 tumor model; 3 h after injection): 1.48 ± 0.37 %ID/g
Tissue distribution, Spleen (PANC-1 tumor model; 3 h after injection): 1.81 ± 1.19 %ID/g
Tissue distribution, Stomach (PANC-1 tumor model; 3 h after injection): 1.29 ± 0.77 %ID/g
Tissue distribution, Testis (PANC-1 tumor model; 3 h after injection): 1.64 ± 1.26 %ID/g
Tissue distribution, Thyroid (PANC-1 tumor model; 3 h after injection): 0.14 ± 0.06 %ID/g
Tissue distribution, Tumor (PANC-1 tumor model; 3 h after injection): 3.84 ± 2.10 %ID/g
Tissue distribution, Bladder ([1]; 1 h after injection): 10.62 ± 8.22 %ID/g
Tissue distribution, Blood ([1]; 1 h after injection): 1.90 ± 0.57 %ID/g
Tissue distribution, Bone ([1]; 1 h after injection): 0.93 ± 0.35 %ID/g
Tissue distribution, Brain ([1]; 1 h after injection): 0.15 ± 0.01 %ID/g
Tissue distribution, Cecum ([1]; 1 h after injection): 0.47 ± 0.19 %ID/g
Tissue distribution, Colon ([1]; 1 h after injection): 2.54 ± 1.55 %ID/g
Tissue distribution, Heart ([1]; 1 h after injection): 3.20 ± 1.26 %ID/g
Tissue distribution, Kidney ([1]; 1 h after injection): 1.48 ± 0.39 %ID/g
Tissue distribution, Liver ([1]; 1 h after injection): 0.58 ± 0.11 %ID/g
Tissue distribution, Lung ([1]; 1 h after injection): 2.84 ± 1.11 %ID/g
Tissue distribution, Pancreas ([1]; 1 h after injection): 2.38 ± 1.36 %ID/g
Tissue distribution, Salivary glands ([1]; 1 h after injection): 4.67 ± 1.03 %ID/g
Tissue distribution, Small intestine ([1]; 1 h after injection): 2.66 ± 1.23 %ID/g
Tissue distribution, Spleen ([1]; 1 h after injection): 2.92 ± 1.49 %ID/g
Tissue distribution, Stomach ([1]; 1 h after injection): 6.34 ± 2.74 %ID/g
Tissue distribution, Testis ([1]; 1 h after injection): 1.84 ± 0.23 %ID/g
Tissue distribution, Thymus ([1]; 1 h after injection): 1.89 ± 0.90 %ID/g
Tissue distribution, Thyroid ([1]; 1 h after injection): 8.06 ± 3.56 %ID/g
Tissue distribution, Bladder ([1]; 3 h after injection): 0.19 ± 0.11 %ID/g
Tissue distribution, Blood ([1]; 3 h after injection): 0.38 ± 0.16 %ID/g
Tissue distribution, Bone ([1]; 3 h after injection): 0.28 ± 0.11 %ID/g
Tissue distribution, Brain ([1]; 3 h after injection): 0.04 ± 0.00 %ID/g
Tissue distribution, Cecum ([1]; 3 h after injection): 0.50 ± 0.23 %ID/g
Tissue distribution, Colon ([1]; 3 h after injection): 0.95 ± 0.59 %ID/g
Tissue distribution, Heart ([1]; 3 h after injection): 0.43 ± 0.20 %ID/g
Tissue distribution, Kidney ([1]; 3 h after injection): 0.73 ± 0.15 %ID/g
Tissue distribution, Liver ([1]; 3 h after injection): 1.34 ± 0.47 %ID/g
Tissue distribution, Lung ([1]; 3 h after injection): 0.69 ± 0.28 %ID/g
Tissue distribution, Pancreas ([1]; 3 h after injection): 0.42 ± 0.28 %ID/g
Tissue distribution, Salivary glands ([1]; 3 h after injection): 0.96 ± 0.16 %ID/g
Tissue distribution, Small intestine ([1]; 3 h after injection): 5.33 ± 2.18 %ID/g
Tissue distribution, Spleen ([1]; 3 h after injection): 0.42 ± 0.14 %ID/g
Tissue distribution, Stomach ([1]; 3 h after injection): 8.08 ± 3.50 %ID/g
Tissue distribution, Testis ([1]; 3 h after injection): 0.31 ± 0.02 %ID/g
Tissue distribution, Thymus ([1]; 3 h after injection): 0.18 ± 0.06 %ID/g
Tissue distribution, Thyroid ([1]; 3 h after injection): 0.42 ± 0.20 %ID/g

Reference: PMC11594329, “Development of LAT1-Selective Nuclear Medicine Therapeutics Using Astatine-211” (International Journal of Molecular Sciences, 2024)
